Assay results published in article PMC10794144, “A novel antibiotic class targeting the lipopolysaccharide transporter” (Nature, 2024).
Converted amounts (≈) assume the structure as drawn. Like-named read-outs stand apart in the source and are kept apart here.

What was measured:
S. aureus ATCC 29213 = assay: microbe, parasite or virus in culture; conditions: Staphylococcus aureus
Procedure: (§1) MIC determinations were performed using the broth microdilution method and in line with CLSI guidelines M07 and M100 (refs. [37],[38]). Bacterial inocula were prepared by diluting a 0.5 McFarland suspension in CAMHB or lysogeny broth (LB) specifically for A. baylyi isolates. […] MIC values of all of the tested antibiotics were read as the lowest compound concentration inhibiting bacterial growth by naked eye or beyond which the OD600 ceased to decrease.

P. aeruginosa ATCC 27853 = assay: microbe, parasite or virus in culture; conditions: Pseudomonas aeruginosa
Procedure: as §1

C. albicans ATCC 90028 = conditions: 100%

C[C@@H](O)[C@H]1C(=O)N2C(C(=O)O)=C(S[C@@H]3CN[C@H](C(=O)N(C)C)C3)[C@H](C)[C@H]12 [meropenem, reference compound]
MIC (S. aureus ATCC 29213; ATCC29213, CAMHB, mode of at least three replicates (RO7036668 one replicate)): 0.12 µg/mL (≈ 0.313 µM) | MIC (S. aureus ATCC 29213; ATCC29213, read-out: MIC 100%, Study LGC277937, 100%): 0.12 µg/mL (≈ 0.313 µM) | MIC (S. aureus ATCC 29213; ATCC29213, read-out: MIC 100%, Study LGC279800, 100%): ≤ 0.06 µg/mL | MIC (S. aureus ATCC 29213; ATCC29213, read-out: MIC 100%, Study LGC281440, 100%): 0.12 µg/mL (≈ 0.313 µM) | MIC (S. aureus ATCC 29213; ATCC29213, read-out: MIC 100%, Study LGC282160, 100%): ≤ 0.06 µg/mL | MIC (S. aureus ATCC 29213; ATCC29213, read-out: MIC 100%, Study LGC282623, 100%): 0.12 µg/mL (≈ 0.313 µM) | MIC (S. aureus ATCC 29213; ATCC29213, read-out: MIC 100%, Study LGC283932, 100%): 0.12 µg/mL (≈ 0.313 µM) | MIC (S. aureus ATCC 29213; ATCC29213, read-out: MIC 100%, Study LGC284200, 100%): 0.12 µg/mL (≈ 0.313 µM) | MIC (S. aureus ATCC 29213; ATCC29213, read-out: MIC 100%, Study LGC284879, 100%): 0.12 µg/mL (≈ 0.313 µM) | MIC (S. aureus ATCC 29213; ATCC29213, read-out: MIC 100%, Study LGC285582, 100%): 0.12 µg/mL (≈ 0.313 µM) | MIC (S. aureus ATCC 29213; ATCC29213, read-out: MIC 100%, Study LGC286210, 100%): 0.25 µg/mL (≈ 0.652 µM) | MIC (S. aureus ATCC 29213; ATCC29213, read-out: MIC 100%, Study LGC293598, 100%): 0.12 µg/mL (≈ 0.313 µM) | MIC (S. aureus ATCC 29213; ATCC29213, read-out: MIC 100%, Study LGC294355, 100%): ≤ 0.06 µg/mL | MIC (S. aureus ATCC 29213; ATCC29213, read-out: MIC 100%, Study LGC295147, 100%): 0.12 µg/mL (≈ 0.313 µM) | MIC (S. aureus ATCC 29213; ATCC29213, read-out: MIC 100%, Study LGC296813, 100%): ≤ 0.06 µg/mL | MIC (S. aureus ATCC 29213; ATCC29213, read-out: MIC 100%, Study LGC299544, 100%): 0.12 µg/mL (≈ 0.313 µM) | MIC (S. aureus ATCC 29213; ATCC29213, read-out: MIC 100%, Study LGC301026, 100%): 0.12 µg/mL (≈ 0.313 µM) | MIC (S. aureus ATCC 29213; ATCC29213, read-out: MIC 100%, Study LGC308175, 100%): ≤ 0.06 µg/mL | MIC (S. aureus ATCC 29213; ATCC29213, read-out: MIC 100%, Study ROC003, 100%): ≤ 0.06 µg/mL | MIC (S. aureus ATCC 29213; ATCC29213, read-out: MIC 100%, Study ROC004, 100%): ≤ 0.06 µg/mL | MIC (S. aureus ATCC 29213; ATCC29213, read-out: MIC 100%, Study ROC005, 100%): ≤ 0.06 µg/mL | MIC (S. aureus ATCC 29213; ATCC29213, read-out: MIC 100%, Study ROC006, 100%): 0.12 µg/mL (≈ 0.313 µM) | MIC (S. aureus ATCC 29213; ATCC29213, read-out: MIC 100%, Study ROC007, 100%): 0.12 µg/mL (≈ 0.313 µM) | MIC (S. aureus ATCC 29213; ATCC29213, read-out: MIC 100%, Study ROC008, 100%): 0.12 µg/mL (≈ 0.313 µM) | MIC (S. aureus ATCC 29213; ATCC29213, read-out: MIC 100%, Study ROC009, 100%): ≤ 0.06 µg/mL | MIC (S. aureus ATCC 29213; ATCC29213, read-out: MIC 100%, Study ROC010, 100%): ≤ 0.06 µg/mL | MIC (S. aureus ATCC 29213; ATCC29213, read-out: MIC 100%, Study ROC012, 100%): ≤ 0.06 µg/mL | MIC (S. aureus ATCC 29213; ATCC29213, read-out: MIC 100%, Study ROC013, 100%): 0.12 µg/mL (≈ 0.313 µM) | MIC (P. aeruginosa ATCC 27853; ATCC27853, CAMHB, mode of at least three replicates (RO7036668 one replicate)): 0.5 µg/mL (≈ 1.3 µM) | MIC (P. aeruginosa ATCC 27853; ATCC27853, read-out: MIC 100%, Study LGC277937, 100%): 0.5 µg/mL (≈ 1.3 µM) | MIC (P. aeruginosa ATCC 27853; ATCC27853, read-out: MIC 100%, Study LGC279800, 100%): 0.25 µg/mL (≈ 0.652 µM) | MIC (P. aeruginosa ATCC 27853; ATCC27853, read-out: MIC 100%, Study LGC281440, 100%): 0.25 µg/mL (≈ 0.652 µM) | MIC (P. aeruginosa ATCC 27853; ATCC27853, read-out: MIC 100%, Study LGC282160, 100%): 0.5 µg/mL (≈ 1.3 µM) | MIC (P. aeruginosa ATCC 27853; ATCC27853, read-out: MIC 100%, Study LGC282623, 100%): 0.5 µg/mL (≈ 1.3 µM) | MIC (P. aeruginosa ATCC 27853; ATCC27853, read-out: MIC 100%, Study LGC283932, 100%): 0.5 µg/mL (≈ 1.3 µM) | MIC (P. aeruginosa ATCC 27853; ATCC27853, read-out: MIC 100%, Study LGC284200, 100%): 0.5 µg/mL (≈ 1.3 µM) | MIC (P. aeruginosa ATCC 27853; ATCC27853, read-out: MIC 100%, Study LGC284879, 100%): 0.5 µg/mL (≈ 1.3 µM) | MIC (P. aeruginosa ATCC 27853; ATCC27853, read-out: MIC 100%, Study LGC285582, 100%): 0.25 µg/mL (≈ 0.652 µM) | MIC (P. aeruginosa ATCC 27853; ATCC27853, read-out: MIC 100%, Study LGC286210, 100%): 0.5 µg/mL (≈ 1.3 µM) | MIC (P. aeruginosa ATCC 27853; ATCC27853, read-out: MIC 100%, Study LGC293598, 100%): 0.5 µg/mL (≈ 1.3 µM) | MIC (P. aeruginosa ATCC 27853; ATCC27853, read-out: MIC 100%, Study LGC294355, 100%): 0.5 µg/mL (≈ 1.3 µM) | MIC (P. aeruginosa ATCC 27853; ATCC27853, read-out: MIC 100%, Study LGC295147, 100%): 0.5 µg/mL (≈ 1.3 µM) | MIC (P. aeruginosa ATCC 27853; ATCC27853, read-out: MIC 100%, Study LGC296813, 100%): 0.5 µg/mL (≈ 1.3 µM) | MIC (P. aeruginosa ATCC 27853; ATCC27853, read-out: MIC 100%, Study LGC299544, 100%): 0.5 µg/mL (≈ 1.3 µM) | MIC (P. aeruginosa ATCC 27853; ATCC27853, read-out: MIC 100%, Study LGC301026, 100%): 0.25 µg/mL (≈ 0.652 µM) | MIC (P. aeruginosa ATCC 27853; ATCC27853, read-out: MIC 100%, Study LGC308175, 100%): 0.25 µg/mL (≈ 0.652 µM) | MIC (P. aeruginosa ATCC 27853; ATCC27853, read-out: MIC 100%, Study ROC003, 100%): 0.5 µg/mL (≈ 1.3 µM) | MIC (P. aeruginosa ATCC 27853; ATCC27853, read-out: MIC 100%, Study ROC004, 100%): 0.5 µg/mL (≈ 1.3 µM) | MIC (P. aeruginosa ATCC 27853; ATCC27853, read-out: MIC 100%, Study ROC005, 100%): 0.5 µg/mL (≈ 1.3 µM) | MIC (P. aeruginosa ATCC 27853; ATCC27853, read-out: MIC 100%, Study ROC006, 100%): 0.5 µg/mL (≈ 1.3 µM) | MIC (P. aeruginosa ATCC 27853; ATCC27853, read-out: MIC 100%, Study ROC007, 100%): 0.5 µg/mL (≈ 1.3 µM) | MIC (P. aeruginosa ATCC 27853; ATCC27853, read-out: MIC 100%, Study ROC008, 100%): 2 µg/mL (≈ 5.22 µM) | MIC (P. aeruginosa ATCC 27853; ATCC27853, read-out: MIC 100%, Study ROC009, 100%): 0.25 µg/mL (≈ 0.652 µM) | MIC (P. aeruginosa ATCC 27853; ATCC27853, read-out: MIC 100%, Study ROC010, 100%): 0.5 µg/mL (≈ 1.3 µM) | MIC (P. aeruginosa ATCC 27853; ATCC27853, read-out: MIC 100%, Study ROC012, 100%): 0.12 µg/mL (≈ 0.313 µM) | MIC (P. aeruginosa ATCC 27853; ATCC27853, read-out: MIC 100%, Study ROC013, 100%): 0.5 µg/mL (≈ 1.3 µM) | MIC 100% (C. albicans ATCC 90028; Study LGC277937): >64 µg/mL | MIC 100% (C. albicans ATCC 90028; Study LGC279800): >64 µg/mL | MIC 100% (C. albicans ATCC 90028; Study LGC281440): >64 µg/mL | MIC 100% (C. albicans ATCC 90028; Study LGC282160): >64 µg/mL | MIC 100% (C. albicans ATCC 90028; Study LGC282623): >64 µg/mL | MIC 100% (C. albicans ATCC 90028; Study LGC283932): >64 µg/mL | MIC 100% (C. albicans ATCC 90028; Study LGC284200): >64 µg/mL | MIC 100% (C. albicans ATCC 90028; Study LGC284879): >64 µg/mL | MIC 100% (C. albicans ATCC 90028; Study LGC285582): >64 µg/mL | MIC 100% (C. albicans ATCC 90028; Study LGC286210): >64 µg/mL | MIC 100% (C. albicans ATCC 90028; Study LGC293598): >64 µg/mL | MIC 100% (C. albicans ATCC 90028; Study LGC294355): >64 µg/mL | MIC 100% (C. albicans ATCC 90028; Study LGC295147): >64 µg/mL | MIC 100% (C. albicans ATCC 90028; Study LGC296813): >64 µg/mL | MIC 100% (C. albicans ATCC 90028; Study LGC299544): >64 µg/mL | MIC 100% (C. albicans ATCC 90028; Study LGC301026): >64 µg/mL | MIC 100% (C. albicans ATCC 90028; Study LGC308175): >64 µg/mL | MIC 100% (C. albicans ATCC 90028; Study ROC003): >64 µg/mL | MIC 100% (C. albicans ATCC 90028; Study ROC004): >64 µg/mL | MIC 100% (C. albicans ATCC 90028; Study ROC005): >64 µg/mL | MIC 100% (C. albicans ATCC 90028; Study ROC006): >64 µg/mL | MIC 100% (C. albicans ATCC 90028; Study ROC008): >64 µg/mL | MIC 100% (C. albicans ATCC 90028; Study ROC009): >64 µg/mL | MIC 100% (C. albicans ATCC 90028; Study ROC010): >64 µg/mL | MIC 100% (C. albicans ATCC 90028; Study ROC013): >64 µg/mL
